Experimental data taken from patent US4260682A, “High sensitivity assays for angiotensin converting enzyme” (priority 1979, dated 1981).
Peptide text beside a SMILES is read from it. * marks the point of attachment. Bz = O=C(c1ccccc1)*

Target: T1, Guinea pig serum ACE (Cavia porcellus, UniProt H0UWL7)
T1 sequence (H0UWL7 33-1234): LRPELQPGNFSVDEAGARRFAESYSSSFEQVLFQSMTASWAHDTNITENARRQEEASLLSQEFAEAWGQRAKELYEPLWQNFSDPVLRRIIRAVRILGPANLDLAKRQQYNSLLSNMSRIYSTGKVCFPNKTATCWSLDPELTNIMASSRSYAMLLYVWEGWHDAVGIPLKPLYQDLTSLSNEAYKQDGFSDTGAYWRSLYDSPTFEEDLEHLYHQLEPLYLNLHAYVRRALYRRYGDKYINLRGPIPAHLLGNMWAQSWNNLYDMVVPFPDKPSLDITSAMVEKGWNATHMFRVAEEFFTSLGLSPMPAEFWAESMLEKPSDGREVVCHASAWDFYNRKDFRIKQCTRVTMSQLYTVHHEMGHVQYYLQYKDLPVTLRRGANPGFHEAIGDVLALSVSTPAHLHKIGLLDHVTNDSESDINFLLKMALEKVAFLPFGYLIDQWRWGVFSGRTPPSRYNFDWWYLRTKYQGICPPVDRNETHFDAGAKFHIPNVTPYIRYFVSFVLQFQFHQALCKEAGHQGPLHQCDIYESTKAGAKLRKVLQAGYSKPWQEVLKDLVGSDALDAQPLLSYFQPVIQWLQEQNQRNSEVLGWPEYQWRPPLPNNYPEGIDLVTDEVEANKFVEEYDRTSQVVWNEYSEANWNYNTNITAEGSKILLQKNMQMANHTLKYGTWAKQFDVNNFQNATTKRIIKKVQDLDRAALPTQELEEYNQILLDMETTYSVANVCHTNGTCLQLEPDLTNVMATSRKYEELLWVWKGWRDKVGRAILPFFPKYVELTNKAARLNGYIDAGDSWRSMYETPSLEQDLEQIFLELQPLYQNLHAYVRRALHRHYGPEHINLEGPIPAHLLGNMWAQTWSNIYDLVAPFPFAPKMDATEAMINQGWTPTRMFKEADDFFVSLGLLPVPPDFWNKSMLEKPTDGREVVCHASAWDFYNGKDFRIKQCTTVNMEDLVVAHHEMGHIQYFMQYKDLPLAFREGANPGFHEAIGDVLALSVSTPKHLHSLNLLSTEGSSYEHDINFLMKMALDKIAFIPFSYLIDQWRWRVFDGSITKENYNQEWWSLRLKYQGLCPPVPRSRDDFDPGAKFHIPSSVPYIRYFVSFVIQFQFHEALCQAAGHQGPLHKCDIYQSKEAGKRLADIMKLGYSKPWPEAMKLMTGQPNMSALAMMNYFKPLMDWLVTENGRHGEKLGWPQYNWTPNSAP
Test: Kinetics of (sulfate-stimulated) HipHisLeu hydrolysis
Format: biochemical
Conditions: for 1/V / V (reaction velocity): 0.1 M NaCl; for V (reaction velocity): 0.75 M Na2 SO4, pH 8.0, 37° C.
Procedure: Kinetics of Sulfate-Stimulated HipHisLeu Hydrolysis
In each assay, 50 μl of Guinea pig serum diluted 1-20 (v/v) in the reaction buffer was mixed with 50 μl of buffer containing sufficient ^3 H-HipHisLeu to provide approximately 100,000 cpm total, together with sufficient unlabeled HipHisLeu to produce the desired substrate concentrations, as indicated in Table 2. […] The reaction mixture was then extracted with 1 ml ethyl acetate. 500 μl of the ethyl acetate fraction was sampled and counted in a scintillation counter.

Q: Which results are given for `CC(C)C[C@H](NC(=O)[C@H](Cc1c[nH]cn1)NC(=O)CNC(=O)c1ccccc1)C(=O)O` [HipHisLeu] (Bz-Gly-His-Leu-OH)?
A: Vmax (0.05 M Hepes, pH 8.0, 0.1 M NaCl, 0.75 M Na2 SO4, serum diluted 1-20): 5.59 nmol/min/mL; reduction of Km (0.75 M Na2 SO4 in reaction mixture containing 0.1 M NaCl): about 15 fold; 1/V (HipHisLeu 0.01 mM, 0.75 M Na2 SO4): 3.33 nmole^-1 · min .multi; V (reaction velocity) (HipHisLeu 0.01 mM): 0.30 nmol/min/mL; 1/V (HipHisLeu 0.02 mM, 0.75 M Na2 SO4): 1.92 nmole^-1 · min .multi; V (reaction velocity) (HipHisLeu 0.02 mM): 0.52 nmol/min/mL; 1/V (HipHisLeu 0.03 mM, 0.75 M Na2 SO4): 1.35 nmole^-1 · min .multi; V (reaction velocity) (HipHisLeu 0.03 mM): 0.74 nmol/min/mL; 1/V (HipHisLeu 0.04 mM, 0.75 M Na2 SO4): 0.78 nmole^-1 · min .multi; V (reaction velocity) (HipHisLeu 0.04 mM): 1.28 nmol/min/mL; 1/V (HipHisLeu 0.05 mM, 0.75 M Na2 SO4): 0.88 nmole^-1 · min .multi; V (reaction velocity) (HipHisLeu 0.05 mM): 1.14 nmol/min/mL; 1/V (HipHisLeu 0.06 mM, 0.75 M Na2 SO4): 0.78 nmole^-1 · min .multi; V (reaction velocity) (HipHisLeu 0.06 mM): 1.28 nmol/min/mL; 1/V (HipHisLeu 0.07 mM, 0.75 M Na2 SO4): 0.47 nmole^-1 · min .multi; V (reaction velocity) (HipHisLeu 0.07 mM): 2.14 nmol/min/mL; 1/V (HipHisLeu 0.08 mM, 0.75 M Na2 SO4): 0.57 nmole^-1 · min .multi; V (reaction velocity) (HipHisLeu 0.08 mM): 1.76 nmol/min/mL; decrease in Km (sulfate ion 0.75-1.1 M vs. without): 14 fold
